In ChEMBL document CHEMBL1201862, “PubChem BioAssay data set” (2004):
Activity calls are given as the source filed them.

Columns and labels:
[1] = biological target: T1, Protein RecA (Mycobacterium tuberculosis, UniProt P9WHJ3); assay: Fluorescence Cell-Free Homogeneous Dose Retest to Identify Inhibitors of RecA-Intein Splicing Activity. [Related pubchem assays (depositor defined):AID2097, AID2223, AID489010, AID492950]; type: functional
T1 sequence (P9WHJ3 whole entry): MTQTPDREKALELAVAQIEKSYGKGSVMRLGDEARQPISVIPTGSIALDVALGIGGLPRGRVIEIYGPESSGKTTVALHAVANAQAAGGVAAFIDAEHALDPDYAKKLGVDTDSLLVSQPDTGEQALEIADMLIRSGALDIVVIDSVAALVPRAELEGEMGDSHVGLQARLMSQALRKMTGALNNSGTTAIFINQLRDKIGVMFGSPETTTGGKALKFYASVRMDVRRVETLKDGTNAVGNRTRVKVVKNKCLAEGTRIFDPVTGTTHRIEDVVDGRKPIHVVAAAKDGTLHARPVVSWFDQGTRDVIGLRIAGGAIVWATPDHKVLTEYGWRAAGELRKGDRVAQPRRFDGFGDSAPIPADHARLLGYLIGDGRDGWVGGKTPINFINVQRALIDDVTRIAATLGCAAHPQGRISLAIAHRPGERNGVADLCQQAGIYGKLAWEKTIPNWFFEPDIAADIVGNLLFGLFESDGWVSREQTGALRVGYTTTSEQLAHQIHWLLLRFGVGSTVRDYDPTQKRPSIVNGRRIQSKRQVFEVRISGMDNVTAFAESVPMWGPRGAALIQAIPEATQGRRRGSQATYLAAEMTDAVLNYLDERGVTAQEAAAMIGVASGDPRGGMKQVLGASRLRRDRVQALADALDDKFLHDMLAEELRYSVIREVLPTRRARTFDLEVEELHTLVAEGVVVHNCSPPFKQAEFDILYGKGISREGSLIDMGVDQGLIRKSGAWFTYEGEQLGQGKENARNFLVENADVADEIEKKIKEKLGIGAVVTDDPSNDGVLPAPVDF

[2] = biological target: T2, Replicative DNA helicase DnaB (Mycobacterium tuberculosis, UniProt P9WMR3); assay: DnaB intein splicing inhibitors, dose response, biochemical, cell-free fluorescence (AID 449749); type: functional
T2 sequence (P9WMR3 whole entry): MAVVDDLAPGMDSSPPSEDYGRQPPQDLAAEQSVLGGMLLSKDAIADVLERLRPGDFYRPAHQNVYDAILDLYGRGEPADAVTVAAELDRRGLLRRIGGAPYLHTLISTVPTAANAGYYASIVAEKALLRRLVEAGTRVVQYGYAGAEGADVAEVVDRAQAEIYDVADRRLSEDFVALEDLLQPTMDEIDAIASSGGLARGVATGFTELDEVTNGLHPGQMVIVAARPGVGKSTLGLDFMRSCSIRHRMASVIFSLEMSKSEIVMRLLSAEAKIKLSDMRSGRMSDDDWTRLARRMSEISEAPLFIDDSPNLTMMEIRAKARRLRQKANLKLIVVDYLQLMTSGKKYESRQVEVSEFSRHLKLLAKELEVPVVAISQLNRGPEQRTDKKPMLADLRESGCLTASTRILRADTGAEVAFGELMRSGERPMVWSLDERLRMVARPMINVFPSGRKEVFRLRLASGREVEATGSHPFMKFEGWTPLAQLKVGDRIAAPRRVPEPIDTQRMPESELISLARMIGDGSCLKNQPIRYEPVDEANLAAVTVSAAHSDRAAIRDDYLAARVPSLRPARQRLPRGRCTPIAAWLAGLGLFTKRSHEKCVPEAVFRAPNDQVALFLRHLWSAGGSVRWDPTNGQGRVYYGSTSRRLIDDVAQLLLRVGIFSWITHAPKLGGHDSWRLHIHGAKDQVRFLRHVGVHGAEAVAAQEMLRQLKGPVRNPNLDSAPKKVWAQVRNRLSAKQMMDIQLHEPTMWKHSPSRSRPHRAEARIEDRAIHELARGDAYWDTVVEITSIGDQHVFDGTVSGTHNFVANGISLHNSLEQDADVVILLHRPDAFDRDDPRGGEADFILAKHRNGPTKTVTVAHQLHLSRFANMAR

[3] = Fluorescence-based cell-based high throughput dose response assay for inhibitors of the interaction of nucleotide-binding oligomerization domain containing 2 (NOD2) and the receptor-interacting serine-threonine kinase 2 (RIPK2).; type: functional; details: Homo sapiens
[4] = control 3'UTR Renilla luciferase suppression, dose response, counter-screen for Shn3 inhibitor project, cell-based, Clone20-Shn3RL, cherry-picked (AID 624133); type: functional
[5] = inhibitors of intracellular T. cruzi replication, confirmation, NIH3T3 host cells, beta-gal luminescence (AID 2044); type: functional, cell-based;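 note: intracellular parasites grown in NIH/3T3 mouse fibroblasts as host cells; luminescent beta-galactosidase reporter signal from transgenic T. cruzi replicating inside host cells; inhibitors lower the luminescence signal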
[6] = HeLa cell cytotoxicity, dose response, cytotoxicity control for MgcRacGAP inhibitor project (AID 624300); type: functional
[7] = HepG2 cell cytotoxicity, dose response, cytotoxicity control for Shn3 inhibitor project, CellTiter-Glo, cherry-picked (AID 624134); type: functional, cell-based
[8] = biological target: Genome polyprotein (dengue virus type 2, UniProt P29990); assay: Dengue-2 NS5 methyltransferase inhibitors, primary screen, biochemical, confirmation dose response (AID 588689); type: functional
Sequence of Genome polyprotein (P29990 2492-3391 limits assumed): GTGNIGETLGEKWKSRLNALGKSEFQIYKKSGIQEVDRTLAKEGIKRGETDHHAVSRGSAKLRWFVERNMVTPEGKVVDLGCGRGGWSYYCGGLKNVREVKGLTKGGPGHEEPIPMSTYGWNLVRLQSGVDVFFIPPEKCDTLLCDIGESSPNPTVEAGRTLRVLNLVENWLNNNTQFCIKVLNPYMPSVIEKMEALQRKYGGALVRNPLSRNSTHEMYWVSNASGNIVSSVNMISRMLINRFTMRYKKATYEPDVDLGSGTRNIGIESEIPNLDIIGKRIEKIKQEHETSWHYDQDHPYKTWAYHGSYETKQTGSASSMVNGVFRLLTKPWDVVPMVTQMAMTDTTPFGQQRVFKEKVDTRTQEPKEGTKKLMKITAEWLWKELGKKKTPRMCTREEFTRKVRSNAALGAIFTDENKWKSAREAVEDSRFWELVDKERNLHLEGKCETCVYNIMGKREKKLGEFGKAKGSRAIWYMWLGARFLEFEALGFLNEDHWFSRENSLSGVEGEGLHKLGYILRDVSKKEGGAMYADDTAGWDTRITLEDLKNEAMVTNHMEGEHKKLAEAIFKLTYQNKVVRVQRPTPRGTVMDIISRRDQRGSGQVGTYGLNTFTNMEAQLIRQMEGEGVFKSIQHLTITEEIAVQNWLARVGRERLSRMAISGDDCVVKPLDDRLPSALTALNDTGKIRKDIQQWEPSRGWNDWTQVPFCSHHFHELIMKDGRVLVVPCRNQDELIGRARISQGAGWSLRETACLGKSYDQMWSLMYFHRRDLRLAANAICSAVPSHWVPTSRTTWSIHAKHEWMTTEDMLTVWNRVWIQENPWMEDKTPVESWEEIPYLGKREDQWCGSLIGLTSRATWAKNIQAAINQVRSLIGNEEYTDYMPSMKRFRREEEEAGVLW

[9] = Shn3 3'UTR reporter inhibitors, dose response, cell-based, Clone20 osteoblasts, firefly luciferase, cherry-picked (AID 624132); type: functional;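 note: firefly luciferase luminescence from reporter carrying the Shn3 3'UTR in osteoblasts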
[10] = biological target: T3, Rac GTPase-activating protein 1 (Homo sapiens, UniProt Q9H0H5); assay: MgcRacGAP GTPase-activating activity inhibitors, confirmation, biochemical, ADP Hunter fluorescence, primary and confirmatory (AID 624330); type: functional
T3 sequence (Q9H0H5 whole entry): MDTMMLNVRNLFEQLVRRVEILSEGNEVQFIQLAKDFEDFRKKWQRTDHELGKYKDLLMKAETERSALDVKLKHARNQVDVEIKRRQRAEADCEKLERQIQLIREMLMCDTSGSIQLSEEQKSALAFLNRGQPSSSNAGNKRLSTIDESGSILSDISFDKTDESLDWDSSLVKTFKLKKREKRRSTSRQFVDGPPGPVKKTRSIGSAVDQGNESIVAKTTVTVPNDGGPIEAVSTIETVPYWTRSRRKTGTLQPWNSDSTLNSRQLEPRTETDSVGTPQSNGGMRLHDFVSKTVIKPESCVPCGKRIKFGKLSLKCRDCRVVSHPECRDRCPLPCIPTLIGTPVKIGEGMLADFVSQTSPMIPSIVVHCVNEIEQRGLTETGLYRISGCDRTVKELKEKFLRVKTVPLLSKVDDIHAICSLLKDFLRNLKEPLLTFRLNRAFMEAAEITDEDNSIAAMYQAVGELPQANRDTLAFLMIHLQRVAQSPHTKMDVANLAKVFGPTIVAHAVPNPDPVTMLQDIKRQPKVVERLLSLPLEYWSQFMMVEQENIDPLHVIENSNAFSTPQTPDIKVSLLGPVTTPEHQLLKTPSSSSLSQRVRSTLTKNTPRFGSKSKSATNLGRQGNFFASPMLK

[11] = inhibitors of PGC1a acetylation in cells, dose response, cell-based, cherry-picked samples (AID 720514); type: functional;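 note: potency may reflect raised or lowered acetylation signal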
[12] = cytotoxicity toward NIH3T3 fibroblasts, dose response, counter-screen, cell-based, ATP luminescence, mouse fibroblasts (AID 2010); type: functional;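 note: cells exposed to compound for about 90 hours before reading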
[13] = biological target: T4, Probable nicotinate-nucleotide adenylyltransferase (Staphylococcus aureus (strain N315), UniProt P65502); type: functional, Staphylococcus aureus subsp. aureus N315;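 for IC50 Mean: confirmatory dose-response retesting of NadD inhibitor hits first found in an ultra-high-throughput screen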
T4 sequence (P65502 whole entry, the tested form may be a part): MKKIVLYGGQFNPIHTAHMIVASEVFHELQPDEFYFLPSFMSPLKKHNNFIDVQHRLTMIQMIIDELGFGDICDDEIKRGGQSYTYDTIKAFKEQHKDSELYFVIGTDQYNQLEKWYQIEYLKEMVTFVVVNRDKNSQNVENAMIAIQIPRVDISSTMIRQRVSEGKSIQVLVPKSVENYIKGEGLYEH

[14] = biological target: T5, Carboxy-terminal domain RNA polymerase II polypeptide A small phosphatase 1 (Homo sapiens, UniProt Q9GZU7); assay: inhibitors of CTDSP1, concentration-response testing, biochemical assay, absorbance-based, actives from ultra-high-throughput screening (AID 540297); type: functional
T5 sequence (Q9GZU7 whole entry): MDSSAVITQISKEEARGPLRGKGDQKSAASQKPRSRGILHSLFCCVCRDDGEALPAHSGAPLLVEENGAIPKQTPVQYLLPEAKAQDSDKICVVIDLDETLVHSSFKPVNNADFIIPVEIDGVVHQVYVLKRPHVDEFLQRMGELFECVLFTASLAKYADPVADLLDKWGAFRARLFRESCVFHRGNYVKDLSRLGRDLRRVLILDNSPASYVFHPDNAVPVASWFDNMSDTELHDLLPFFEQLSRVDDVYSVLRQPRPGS

[15] = biological target: T4, Probable nicotinate-nucleotide adenylyltransferase; type: functional, Staphylococcus aureus subsp. aureus N315; details: read-out: IC50_Mean
[16] = test system: INS1; assay: beta cell apoptosis inhibitors, cytokine rescue, dose response, luminescence, retest (AID 449756); type: functional, cell-based; details: Rattus norvegicus;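 note: cell death triggered by IL-1 beta plus TNF-alpha plus IFN-gamma mixture; protective hits raise ATP signal compared with cytokine alone wells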
[17] = biological target: Protein Wnt-3a (Mus musculus, UniProt P27467); assay: Wnt3a-driven reporter signaling inhibition, dose response, selectivity assay for Gli-SUFU antagonist project, Wnt-LIGHT cells, luminescence (AID 651570); type: functional; details: read-out: IC50_Mean;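 note: Wnt-LIGHT reporter cells stimulated with conditioned medium from Wnt3a-producing cells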
Sequence of Protein Wnt-3a (P27467 whole entry): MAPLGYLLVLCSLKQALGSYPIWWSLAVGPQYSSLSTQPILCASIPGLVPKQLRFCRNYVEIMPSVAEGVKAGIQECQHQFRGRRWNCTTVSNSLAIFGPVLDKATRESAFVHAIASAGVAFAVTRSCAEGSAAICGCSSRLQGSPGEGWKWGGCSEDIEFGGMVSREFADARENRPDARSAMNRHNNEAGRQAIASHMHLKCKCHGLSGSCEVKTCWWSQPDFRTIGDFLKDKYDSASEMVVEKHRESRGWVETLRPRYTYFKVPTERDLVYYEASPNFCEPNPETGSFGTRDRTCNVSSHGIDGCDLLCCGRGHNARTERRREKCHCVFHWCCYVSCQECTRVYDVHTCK

[18] = biological target: T6, High affinity choline transporter 1 (Homo sapiens, UniProt Q9GZV3); assay: CHT inhibitors, dose response, cell-based, 10-point CRC, membrane potential dye (AID 588401); type: functional;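 note: membrane potential dye fluorescence of choline-evoked depolarization via CHT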
T6 sequence (Q9GZV3 whole entry): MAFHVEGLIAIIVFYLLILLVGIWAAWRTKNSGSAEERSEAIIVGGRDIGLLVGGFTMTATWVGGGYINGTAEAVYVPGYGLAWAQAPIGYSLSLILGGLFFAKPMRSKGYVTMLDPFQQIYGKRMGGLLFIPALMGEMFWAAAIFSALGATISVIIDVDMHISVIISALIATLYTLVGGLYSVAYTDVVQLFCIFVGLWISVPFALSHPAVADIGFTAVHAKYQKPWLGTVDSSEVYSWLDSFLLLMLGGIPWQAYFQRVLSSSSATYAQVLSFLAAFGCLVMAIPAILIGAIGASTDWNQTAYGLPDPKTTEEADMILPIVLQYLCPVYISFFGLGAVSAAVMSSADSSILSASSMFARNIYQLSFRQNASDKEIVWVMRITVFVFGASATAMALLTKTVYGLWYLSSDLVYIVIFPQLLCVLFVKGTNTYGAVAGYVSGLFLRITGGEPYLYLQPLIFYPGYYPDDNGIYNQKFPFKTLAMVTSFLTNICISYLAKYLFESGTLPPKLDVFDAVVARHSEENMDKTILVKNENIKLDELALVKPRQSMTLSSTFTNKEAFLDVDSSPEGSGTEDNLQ

[19] = biological target: T6, High affinity choline transporter 1; assay: CHT inhibitors, dose response, cell-based, 5-point CRC, membrane potential dye (AID 504840); type: functional
[20] = test system: H4; assay: Luminescence Cell-Based Dose Response HTS to Identify Activators of 5'UTR Stem-Loop Driven Prion Protein mRNA Translation in H4 Neuroglioblastoma Cells. [Related pubchem assays: 1829 (Project Summary), 1814 (Primary HTS)]; type: functional; details: Homo sapiens
[21] = HEp-2 cell cytotoxicity, dose response, cytotoxicity control for RSV inhibitor project, HTS (AID 2410); type: functional; details: human respiratory syncytial virus
[22] = test system: HeLa; assay: HeLa cell cytotoxicity, dose response, cytotoxicity control for MITF activator project, CellTiter-Glo luminescence, cherry-pick samples (AID 540259); type: functional, cell-based; details: Homo sapiens
[23] = Luminescence Cell-Based Dose Response HTS to Identify Activators of Luciferase Translation or Activity in H4 […] Cells. [Related pubchem assays: 1829 (Project Summary), 1814 (Primary HTS)]; type: functional
[24] = Luminescence Cell-Based Dose Confirmation HTS to Identify Activators of 5'UTR Stem-Loop Driven Alpha-Synuclein mRNA Translation in H4 Neuroglioblastoma Cells. [Related pubchem assays: 1829 (Project Summary), 1814 (Primary HTS)]; type: functional
[25] = biological target: T7, Small ubiquitin-related modifier 1 (Homo sapiens, UniProt P63165); assay: inhibitors of SUMO1 peptide binding, dose response, biochemical, fluorescence polarization, uHTS hits (AID 624382); type: functional; details: read-out: IC50_Mean
T7 sequence (P63165 whole entry): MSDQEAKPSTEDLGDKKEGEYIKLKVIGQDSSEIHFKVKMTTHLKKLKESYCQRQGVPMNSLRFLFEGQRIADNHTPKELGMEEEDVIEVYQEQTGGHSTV

[26] = biological target: T7, Small ubiquitin-related modifier 1; assay: inhibitors of SUMO1 partner interactions, dose response, biochemical, FRET (AID 624383); type: functional; details: read-out: IC50_Mean

O=C(Nc1ccccc1)C1=C(c2ccccc2)S(=O)(=O)CCS1(=O)=O
EC50 [1]: 0.682 µM (active) | AC50 [2]: 1.42 µM (active) | IC50 [3]: 3.59 µM (active) | AC50 [4]: 10.3 µM (active) | EC50 [5]: 1.31 µM (active) | CC50 [6]: 71.9 µM (active) | AC50 [7]: 15.4 µM (active) | IC50 [8]: > 100 µM (active) | AC50 [9]: 1.37 µM (active) | IC50 [10]: 123 µM (active) | AC50 [11]: 8.27 µM (active) | EC50 [12]: 2.06 µM (active)

C[C@@H]1CN([C@H](C)CO)C(=O)c2cc(NC(=O)c3ccncc3)ccc2O[C@@H]1CN(C)C(=O)Nc1ccccc1
IC50 [13]: 26.9 µM (active) | IC50 [14]: 12.8 µM (active) | IC50 [15]: 35.2 µM (active)

CCCCSc1nc2sc3c(c2c(=O)n1-c1ccc(C)cc1)CCN(C)C3
AC50 [16]: 10.1 µM (active) | IC50 [17]: 10.8 µM (active)

COc1cccc(CCNC(=O)c2ccc(OC)c(OC3CCN(C(C)C)CC3)c2)c1
IC50 [18]: 3.98 µM (active) | IC50 [19]: 5 µM (active)

COc1ccccc1N1CCN(C2=Nc3cccc4cccc2c34)CC1
EC50 [20]: 18.5 µM (active) | CC50 [21]: 25.4 µM (active) | AC50 [22]: 27.1 µM (active) | EC50 [23]: 19.1 µM (active) | EC50 [24]: 43.3 µM (active)

O=C(Nc1ccc(N2CCCC2)cc1)c1cc(Br)ccc1Cl
IC50 [13]: 21.7 µM (active) | IC50 [15]: 35.9 µM (active)

Cn1c(-c2ccc(Cl)cc2)cnc1NCc1cc2c(cc1[N+](=O)[O-])OCO2
CC50 [6]: 100 µM (active) | IC50 [10]: 73.5 µM (active)

COc1ccc(C(=O)Nc2nc3cc4c(cc3s2)OCCO4)c(OC)c1
IC50 [25]: > 66.6 µM (inactive) | IC50 [26]: 2.77 µM (active)

O=C(COC(=O)CCC(=O)c1ccc(F)cc1)Nc1ccc2[nH]c(O)nc2c1
IC50 [25]: > 66.6 µM (inactive) | IC50 [26]: 17.6 µM (active)

Cc1ccc(S(=O)(=O)Nc2ccc(Nc3nccn4c(-c5cccc(OC(F)(F)F)c5)cnc34)cc2)cc1
IC50 [13]: 16.2 µM (active) | IC50 [15]: 27.2 µM (active)
